This experiment deals with PAFR (Homo sapiens, UniProt P25105). Nature of the experiment: PAF Binding Assay (PAFR binding).
Sequence of PAFR (P25105 whole entry): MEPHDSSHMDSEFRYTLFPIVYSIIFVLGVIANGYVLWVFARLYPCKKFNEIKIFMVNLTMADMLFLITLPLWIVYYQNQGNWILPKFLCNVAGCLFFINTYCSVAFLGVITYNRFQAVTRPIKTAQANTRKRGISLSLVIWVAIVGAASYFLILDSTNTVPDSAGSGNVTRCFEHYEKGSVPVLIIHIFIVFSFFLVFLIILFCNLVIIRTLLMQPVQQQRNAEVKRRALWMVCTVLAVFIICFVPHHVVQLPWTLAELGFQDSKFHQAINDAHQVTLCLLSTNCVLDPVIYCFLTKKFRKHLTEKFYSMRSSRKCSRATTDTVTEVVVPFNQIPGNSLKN

For the molecule `O=S(=O)(N[C@H]1CCC[C@@H](n2cnnc2C2CC2)C1)c1ccc(-c2noc(C3CC3)n2)cc1OC(F)(F)F` [Compound 2Bb, 4-(5-cyclopropyl-1,2,4-oxadiazol-3-yl)-N-[(1S,3R)-3-(3-cycloropyl-4H-1,2,4-triazol-4-yl)cyclohexyl]-2-(trifluoromethoxy)benzenesulfonamide], the IC50 (commonly the midpoint of a concentration-inhibition curve) is 4.3 nM.

Molecule `Cc1nncn1[C@H]1C[C@@H](NS(=O)(=O)c2ccc(-c3ccc(OCC(F)(F)F)nc3)c(F)c2)CC(F)(F)C1` [Compound 2Hf, N-[(1R,5S)-3,3-difluoro-5-(3-methyl-4H-1,2,4-triazol-4-yl)cyclohexyl]-3-fluoro-4-[6-(2,2,2-trifluoroethoxy)pyridin-3-yl]benzenesulfonamide] registered a half-inhibitory concentration (IC50) of 0.6 nM.

Take `O=S(=O)(N[C@H]1CCC[C@@H](n2cnnc2)C1)c1cccc(OC(F)F)c1` [Compound 2Md, 3-(difluoromethoxy)-N-[(1S,3R)-3-(4H-1,2,4-triazol-4-yl)cyclohexyl]benzenesulfonamide]: the IC50 turned out to be 323 nM.

For the molecule `Cc1nncn1[C@@H]1CCC[C@H](NS(=O)(=O)c2ccc(C(C)(C)C)cc2)C1` [Compound 2Np, 4-tert-butyl-N-[(1S,3R)-3-(3-methyl-4H-1,2,4-triazol-4-yl)cyclohexyl]benzenesulfonamide], the concentration for half-maximal inhibition (IC50) was determined as 51 nM.

`O=S(=O)(N[C@H]1CCC[C@@H](n2cnnc2)C1)c1cc(-c2ccc(F)cc2)cc(C(F)(F)F)c1` [Compound 3Ac, 4′-fluoro-N-[(1S,3R)-3-(4H-1,2,4-triazol-4-yl)cyclohexyl]-5-(trifluoromethyl)biphenyl-3-sulfonamide] gave a concentration for half-maximal inhibition (IC50) of 6.2 nM. Against the preceding molecule, the IC50 is about 8.2-fold lower.

`CCc1cc(-c2cccc3cccnc23)cc(S(=O)(=O)N[C@@H]2C[C@H](n3cnnc3C)CC(F)(F)C2)c1` [Compound 3Da, N-[(1R,5S)-3,3-difluoro-5-(3-methyl-4H-1,2,4-triazol-4-yl)cyclohexyl]-3-ethyl-5-quinolin-8-ylbenzenesulfonamide]: the IC50 is 1.8 nM.

`CC(C)Oc1ccc(-c2ccc(S(=O)(=O)N[C@H]3CCC[C@@H](n4cnnc4)C3)cc2F)cc1` [Compound 2Ed, 2-fluoro-4′-isopropoxy-N-[(1S,3R)-3-(4H-1,2,4-triazol-4-yl)cyclohexyl]biphenyl-4-sulfonamide]: the IC50 amounted to 15 nM.

With `CCc1cc(-c2ncns2)ccc1S(=O)(=O)N[C@H]1CCC[C@@H](n2cnnc2)C1` [Compound 2Aaz, 2-ethyl-4-(1,2,4-thiadiazol-5-yl)-N-[(1S,3R)-3-(4H-1,2,4-triazol-4-yl)cyclohexyl]benzenesulfonamide], the IC50 was determined as 390 nM.

The molecule `CCc1cc(-c2cc(C(F)(F)F)cc(C(F)(F)F)c2)ccc1S(=O)(=O)N[C@H]1CCC[C@@H](n2cnnc2)C1` [Compound 2Abo, 3-ethyl-N-[(1S,3R)-3-(4H-1,2,4-triazol-4-yl)cyclohexyl]-3′,5′-bis(trifluoromethyl)biphenyl-4-sulfonamide] yielded a half-inhibitory concentration (IC50) of 13 nM.

`O=S(=O)(N[C@H]1CCC[C@@H](n2cnnc2)C1)c1cc(-c2cc3ccccc3s2)cc(C(F)(F)F)c1` [Compound 3Aaf, 3-(1-benzothien-2-yl)-N-[(1S,3R)-3-(4H-1,2,4-triazol-4-yl)cyclohexyl]-5-(trifluoromethyl)benzenesulfonamide]: the IC50 is 1.2 nM.

On to `O=S(=O)(N[C@H]1CCC[C@@H](n2cnnc2)C1)c1cc(-c2cc(Cl)cnc2F)cc(C(F)(F)F)c1` [Compound 3Aab, 3-(5-chloro-2-fluoropyridin-3-yl)-N-[(1S,3R)-3-(4H-1,2,4-triazol-4-yl)cyclohexyl]-5-(trifluoromethyl)benzenesulfonamide], for which the concentration for half-maximal inhibition (IC50) is 4 nM. Compared with the last molecule, the IC50 is about 3.3-fold higher.

`O=S(=O)(N[C@H]1CCC[C@@H](n2cnnc2)C1)c1cc(-c2cccnc2OCC(F)(F)F)cc(C(F)(F)F)c1` [Compound 3Aam, N-[(1S,3R)-3-(4H-1,2,4-triazol-4-yl)cyclohexyl]-3-[2-(2,2,2-trifluoroethoxy)pyridin-3-yl]-5-(trifluoromethyl)benzenesulfonamide] gave an IC50 of 3.2 nM.

For `CC(F)(F)c1nc(-c2ccc(S(=O)(=O)N[C@H]3CCC[C@@H](n4cnnc4)C3)c(C3CC3)c2)no1` [Compound 2Kc, 2-cyclopropyl-4-[5-(1,1-difluoroethyl)-1,2,4-oxadiazol-3-yl]-N-[(1S,3R)-3-(4H-1,2,4-triazol-4-yl)cyclohexyl]benzenesulfonamide], the IC50 turned out to be 9.9 nM.

The molecule `Cc1nncn1[C@@H]1CCC[C@H](NS(=O)(=O)c2ccc(-c3cnc(Cl)c(F)c3)c(F)c2)C1` [Compound 2Fg, 4-(6-chloro-5-fluoropyridin-3-yl)-3-fluoro-N-[(1S,3R)-3-(3-methyl-4H-1,2,4-triazol-4-yl)cyclohexyl]benzenesulfonamide] gave a 50% inhibitory concentration (IC50) of 36 nM.

`Cc1nncn1[C@@H]1CCC[C@H](NS(=O)(=O)c2ccc(-c3ccc(OC(C)C)nc3)c(F)c2)C1` [Compound 2Fe, 3-fluoro-4-(6-isopropoxypyridin-3-yl)-N-[(1S,3R)-3-(3-methyl-4H-1,2,4-triazol-4-yl)cyclohexyl]benzenesulfonamide] had an IC50 of 3.6 nM.

Molecule `CCc1cc(-c2ccc(OC(F)(F)F)cc2)ccc1S(=O)(=O)N[C@@H]1C[C@H](n2cnnc2C)CC(F)(F)C1` [Compound 2Cbd, N-[(1R,5S)-3,3-difluoro-5-(3-methyl-4H-1,2,4-triazol-4-yl)cyclohexyl]-3-ethyl-4′-(trifluoromethoxy)biphenyl-4-sulfonamide] displayed an IC50 of 0.9 nM.

“3-[1,2,4]triazolo[1,5-a]pyrimidin-7-yl-N-[(1R,5S)-3,3-difluoro-5-(3-methyl-4H-1,2,4-triazol-4-yl)cyclohexyl]-5-(trifluoromethyl)benzenesulfonamide [Compound 9Ac]” yielded an IC50 of 86 nM.

Molecule `O=S(=O)(N[C@H]1CCC[C@@H](n2cnnc2C2CC2)C1)c1ccc(-c2noc(C3CCC3)n2)cc1OC(F)(F)F` [Compound 2Bc, 4-(5-cyclobutyl-1,2,4-oxadiazol-3-yl)-N-[(1S,3R)-3-(3-cycloropyl-4H-1,2,4-triazol-4-yl)cyclohexyl]-2-(trifluoromethoxy)benzenesulfonamide] returned an IC50 of 2.5 nM.

Molecule `O=S(=O)(N[C@H]1CCC[C@@H](n2cnnc2)C1)c1ccc(-c2ccc(OC(F)(F)F)cc2)cc1OC(F)(F)F` [Compound 2Bal, N-[(1S,3R)-3-(4H-1,2,4-triazol-4-yl)cyclohexyl]-3,4′-bis(trifluoromethoxy)biphenyl-4-sulfonamide] displayed an IC50 of 15 nM.

Consider `CC(C)Oc1ccc(-c2ccc(S(=O)(=O)N[C@@H]3C[C@H](n4cnnc4)CC(F)(F)C3)cc2F)cc1` [Compound 2Gd, N-[(1R,5S)-3,3-difluoro-5-(4H-1,2,4-triazol-4-yl)cyclohexyl]-2-fluoro-4′-isopropoxybiphenyl-4-sulfonamide], for which the IC50 was found to be 7.2 nM.

The molecule `O=S(=O)(N[C@H]1CCC[C@@H](n2cnnc2)C1)c1ccc(-c2ccc(OC(F)(F)F)cc2)c(F)c1` [Compound 2Ea, 2-fluoro-N-[(1S,3R)-3-(4H-1,2,4-triazol-4-yl)cyclohexyl]-4′-(trifluoromethoxy)biphenyl-4-sulfonamide] gave an IC50 of 5.8 nM.

The molecule `Cc1nncn1[C@@H]1CCC[C@H](NS(=O)(=O)c2ccc(-n3ccc(C4CC4)n3)cc2)C1` [Compound 2Ns, 4-(3-cyclopropyl-1H-pyrazol-1-yl)-N-[(1S,3R)-3-(3-methyl-4H-1,2,4-triazol-4-yl)cyclohexyl]benzenesulfonamide] yielded an IC50 of 30 nM. Against the preceding molecule, the IC50 is about 5.2-fold higher.

Molecule `CCCCOc1ccc(S(=O)(=O)N[C@@H]2C[C@H](n3cnnc3C)CC(F)(F)C2)cc1` [Compound 2Qw, 4-butoxy-N-[(1R,5S)-3,3-difluoro-5-(3-methyl-4H-1,2,4-triazol-4-yl)cyclohexyl]benzenesulfonamide] displayed an IC50 of 4.2 nM.

With `O=S(=O)(N[C@H]1CCC[C@@H](n2cnnc2)C1)c1cc(Br)cc(C(F)(F)F)c1` [Compound 2Mi, 3-bromo-N-[(1S,3R)-3-(4H-1,2,4-triazol-4-yl)cyclohexyl]-5-(trifluoromethyl)benzenesulfonamide], the half-maximal inhibitory concentration (IC50) came to 165 nM. This IC50 lies about 39-fold higher than the previous one.

On to `CCc1cc(-c2ccc3c(c2)OCO3)ccc1S(=O)(=O)N[C@H]1CCC[C@@H](n2cnnc2)C1` [Compound 2Ax, 4-(1,3-benzodioxol-5-yl)-2-ethyl-N-[(1S,3R)-3-(4H-1,2,4-triazol-4-yl)cyclohexyl]benzenesulfonamide], for which the half-inhibitory concentration (IC50) came to 38 nM.

`CCc1cc(-c2ccc(C(F)(F)F)cc2C(F)(F)F)ccc1S(=O)(=O)N[C@H]1CCC[C@@H](n2cnnc2)C1` [Compound 2Abm, 3-ethyl-N-[(1S,3R)-3-(4H-1,2,4-triazol-4-yl)cyclohexyl]-2′,4′-bis(trifluoromethyl)biphenyl-4-sulfonamide]: the 50% inhibitory concentration (IC50) amounted to 83 nM. This IC50 lies about 2.2-fold higher than the previous one.

`O=S(=O)(N[C@H]1CCC[C@@H](n2cnnc2)C1)c1cc(-c2ccccc2F)cc(C(F)(F)F)c1` [Compound 3At, 2′-fluoro-N-[(1S,3R)-3-(4H-1,2,4-triazol-4-yl)cyclohexyl]-5-(trifluoromethyl)biphenyl-3-sulfonamide] yielded a half-inhibitory concentration (IC50) of 5.4 nM.

Molecule `CCc1cc(OCCCC(F)(F)F)ccc1S(=O)(=O)N[C@H]1CCC[C@@H](n2cnnc2C)C1` [Compound 2Abj, 2-ethyl-N-[(1S,3R)-3-(3-methyl-4H-1,2,4-triazol-4-yl)cyclohexyl]-4-(4,4,4-trifluorobutoxy)benzenesulfonamide] came in with a half-inhibitory concentration (IC50) of 2.7 nM.

`O=S(=O)(N[C@H]1CCC[C@@H](n2cnnc2)C1)c1cc(-c2ccccc2)cc(C(F)(F)F)c1` [Compound 3Ae, N-[(1S,3R)-3-(4H-1,2,4-triazol-4-yl)cyclohexyl]-5-(trifluoromethyl)biphenyl-3-sulfonamide] came in with an IC50 of 5.9 nM.

For the molecule `O=S(=O)(N[C@H]1CCC[C@@H](n2cnnc2)C1)c1cc(F)cc(F)c1` [Compound 2Ma, 3,5-difluoro-N-[(1S,3R)-3-(4H-1,2,4-triazol-4-yl)cyclohexyl]benzenesulfonamide], the IC50 was determined as 2900 nM.

For `CCc1cc(-c2ccc(OC(F)(F)F)cc2)ccc1S(=O)(=O)N[C@@H]1C[C@H](n2cnnc2)CC(F)(F)C1` [Compound 2Cal, N-[(1R,5S)-3,3-difluoro-5-(4H-1,2,4-triazol-4-yl)cyclohexyl]-3-ethyl-4′-(trifluoromethoxy)biphenyl-4-sulfonamide], the half-maximal inhibitory concentration (IC50) came out at 11 nM.

Values taken from US9029377B2, “Platelet-activating factor receptor antagonists” (Merck Sharp & Dohme Corp., priority 2009, dated 2015).
